Results: PubChem BioAssay (NCI)
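GI50 = concentration required for 50% inhibition of growth. TGI is the concentration that stops growth completely.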

Tests used:
Experiment in all cases: inhibition of tumour cell growth, NCI panel, 384-well format
[1] = tested on: SK-MEL-5 melanoma
[2] = tested on: NCI-H23 lung
[3] = tested on: NCI/ADR-RES ovarian
[4] = tested on: HCC-2998 colon
[5] = tested on: RPMI-8226 leukemia
[6] = tested on: UACC-62 melanoma
[7] = tested on: COLO 205 colon
[8] = tested on: A498 renal
[9] = tested on: KM12 colon
[10] = tested on: NCI-H522 lung
[11] = tested on: T-47D breast
[12] = tested on: UACC-257 melanoma
[13] = tested on: HL-60(TB) leukemia
[14] = tested on: SW-620 colon
[15] = tested on: PC-3 prostate
[16] = tested on: LOX IMVI melanoma
[17] = tested on: UO-31 renal
[18] = tested on: MDA-MB-231 breast
[19] = tested on: OVCAR-5 ovarian
[20] = tested on: A549 NSCLC
[21] = tested on: SNB-19 CNS
[22] = tested on: K-562 leukemia
[23] = tested on: U251 glioblastoma
[24] = tested on: ACHN renal
[25] = tested on: SF-295 CNS
[26] = tested on: MOLT-4 leukemia
[27] = tested on: HOP-62 NSCLC
[28] = tested on: OVCAR-4 ovarian
[29] = tested on: CCRF-CEM leukemia
[30] = tested on: HCT-15 colon
[31] = tested on: SNB-75 CNS
[32] = tested on: NCI-H226 lung
[33] = tested on: MCF7 breast
[34] = tested on: EKVX NSCLC
[35] = tested on: HOP-92 NSCLC
[36] = tested on: 786-0 renal
[37] = tested on: OVCAR-3 ovarian
[38] = tested on: MDA-MB-468 breast
[39] = tested on: CAKI-1 renal
[40] = tested on: HS 578T breast
[41] = tested on: HT29 colon
[42] = tested on: SK-OV-3 ovarian
[43] = tested on: RXF 393 renal
[44] = tested on: MDA-MB-435 melanoma
[45] = tested on: SR leukemia
[46] = tested on: SF-268 CNS
[47] = tested on: SN12C renal
[48] = tested on: OVCAR-8 ovarian
[49] = tested on: BT-549 breast
[50] = tested on: DU-145 prostate
[51] = tested on: M14 melanoma
[52] = tested on: MALME-3M melanoma
[53] = tested on: NCI-H460 NSCLC
[54] = tested on: SK-MEL-28 melanoma
[55] = tested on: SF-539 CNS
[56] = tested on: TK-10 renal
[57] = tested on: IGROV1 ovarian
[58] = tested on: NCI-H322M lung

C[C@@H]1COC(Nc2ccc3ncnc(Nc4ccc(OCc5nccs5)c(Cl)c4)c3c2)=N1
GI50 [1]: 1.77 µM
TGI [1]: 4.21 µM
GI50 [2]: 7.4 µM
TGI [2]: 26.3 µM
GI50 [3]: 2.39 µM
TGI [3]: 6.92 µM
GI50 [4]: 12.3 µM
TGI [4]: 26.7 µM
GI50 [5]: 3.48 µM
TGI [5]: 11 µM
GI50 [6]: 4.25 µM
TGI [6]: 16.2 µM
GI50 [7]: 6.44 µM
TGI [7]: 19 µM
GI50 [8]: 4.31 µM
TGI [8]: 19 µM
GI50 [9]: 5.6 µM
TGI [9]: 18.8 µM
GI50 [10]: 0.539 µM
TGI [10]: 2.66 µM
GI50 [11]: 0.641 µM
TGI [11]: 4.52 µM
GI50 [12]: 9.37 µM
TGI [12]: 21.2 µM
GI50 [13]: 3.82 µM
TGI [13]: 8.05 µM
GI50 [14]: 19 µM
TGI [14]: 35.7 µM
GI50 [15]: 5.36 µM
TGI [15]: 17 µM
GI50 [16]: 3.25 µM
TGI [16]: 11.6 µM
GI50 [17]: 10.9 µM
TGI [17]: 23.6 µM
GI50 [18]: 9.67 µM
TGI [18]: 22.8 µM
GI50 [19]: 6.68 µM
TGI [19]: 28.2 µM
GI50 [20]: 4.91 µM
TGI [20]: 19.8 µM
GI50 [21]: 11.1 µM
TGI [21]: 24.5 µM
GI50 [22]: 4.48 µM
TGI [22]: 16.6 µM
GI50 [23]: 10.7 µM
TGI [23]: 22.8 µM
GI50 [24]: 0.563 µM
TGI [24]: 17.4 µM
GI50 [25]: 13 µM
TGI [25]: 26.2 µM
GI50 [26]: 1.85 µM
TGI [26]: 3.59 µM
GI50 [27]: 4.22 µM
TGI [27]: 15 µM
GI50 [28]: 2.32 µM
TGI [28]: 14.8 µM
GI50 [29]: 3.44 µM
TGI [29]: 8.53 µM
GI50 [30]: 5.44 µM
TGI [30]: 21.5 µM
GI50 [31]: 13.5 µM
TGI [31]: 28.2 µM
GI50 [32]: 1.66 µM
TGI [32]: 5.47 µM
GI50 [33]: 5.96 µM
TGI [33]: 21.2 µM
GI50 [34]: 0.332 µM
TGI [34]: 11.4 µM
GI50 [35]: 3.25 µM
TGI [35]: 17 µM
GI50 [36]: 4.26 µM
TGI [36]: 16.9 µM
GI50 [37]: 1.83 µM
TGI [37]: 7.84 µM
GI50 [38]: 0.137 µM
TGI [38]: 0.342 µM
GI50 [39]: 1.81 µM
TGI [39]: 14.8 µM
GI50 [40]: 4.71 µM
TGI [40]: 15.6 µM
GI50 [41]: 6.33 µM
TGI [41]: 19.9 µM
GI50 [42]: 2.2 µM
TGI [42]: 12.5 µM
GI50 [43]: 5.8 µM
TGI [43]: 18.7 µM
GI50 [44]: 11.8 µM
TGI [44]: 24.7 µM
GI50 [45]: 7.27 µM
TGI [45]: 20.5 µM
GI50 [46]: 9.55 µM
TGI [46]: 23.5 µM
GI50 [47]: 2.78 µM
TGI [47]: 16.1 µM
GI50 [48]: 3.12 µM
TGI [48]: 12.4 µM
GI50 [49]: 3.81 µM
TGI [49]: 12.2 µM
GI50 [50]: 3.22 µM
TGI [50]: 17.6 µM
GI50 [51]: 6.3 µM
TGI [51]: 18.3 µM
GI50 [52]: 3.43 µM
TGI [52]: 11.4 µM
GI50 [53]: 3.71 µM
TGI [53]: 12.8 µM
GI50 [54]: 4.88 µM
TGI [54]: 17.2 µM
GI50 [55]: 12.3 µM
TGI [55]: 24.8 µM
GI50 [56]: 1.48 µM
TGI [56]: 17.9 µM
GI50 [57]: 0.335 µM
TGI [57]: 2.13 µM
GI50 [58]: 0.337 µM
TGI [58]: 12.9 µM
